pIC50: −log10 of the molar value.
Tests used:
Polycomb protein EED = Polycomb protein EED (Homo sapiens, UniProt O75530); experiment: Inhibition of EED (unknown origin) by ELISA based assay
[1] = Inhibition of p38 (unknown origin)

Chain of Polycomb protein EED (O75530 whole entry): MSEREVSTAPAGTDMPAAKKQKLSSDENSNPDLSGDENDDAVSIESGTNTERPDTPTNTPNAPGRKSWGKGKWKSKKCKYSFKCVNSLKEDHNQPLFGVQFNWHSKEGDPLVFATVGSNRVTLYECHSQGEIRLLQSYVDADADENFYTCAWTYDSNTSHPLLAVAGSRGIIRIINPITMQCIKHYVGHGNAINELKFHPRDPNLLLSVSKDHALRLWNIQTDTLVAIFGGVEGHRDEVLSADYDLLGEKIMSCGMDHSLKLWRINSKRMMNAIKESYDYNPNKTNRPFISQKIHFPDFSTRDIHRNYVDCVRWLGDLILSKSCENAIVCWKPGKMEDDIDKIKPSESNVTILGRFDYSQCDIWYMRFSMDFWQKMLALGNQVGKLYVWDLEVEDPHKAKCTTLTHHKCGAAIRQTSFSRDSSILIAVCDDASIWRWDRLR

| pIC50 (Polycomb protein EED) | pIC50 [1] | SMILES |
| --- | --- | --- |
| 7.59 |  | Cc1ncccc1-c1cnc(NCc2c(F)ccc3c2CCO3)n2cnnc12 |
|  | 4.96 | COc1cc2c(Oc3ccc(NC(=O)C4(C(=O)Nc5ccc(F)cc5)CC4)cc3F)ccnc2cc1OCCCN1CCOCC1 [FORETINIB] |

— ChEMBL document CHEMBL5550121, “Expanding the ligand spaces for E3 ligases for the design of protein degraders” (Bioorg Med Chem, 2024)
